# Data as given in patent publication US20040073007A1, “Antiangiogenic peptides” (priority 2001, published 2004).
# Ends that are not written are not given here. * marks the point of attachment. Acm = CC(=O)NC*
# Tests used:
# [1] = tested on: endothelial cells; experiment: Tubules formation by endothelial cells on Matrigel; format: cell-based; details: endothelial cells on Matrigel with FGF or VEGF; area quantified by NIH Image
# Description: The formation of tubular structures, similar to capillaries, was evaluated by seeding the endothelial cells on a Matrigel carrier, a re-constructed basal membrane, with the characteristic of being liquid at 4° C. and of undergoing polymerization at 37° C. forming a tri-dimensional gel. Proangiogenic factors, such as Fibroblast Growth Factor (FGF) or Vascular Endothelial Growth Factor (VEGF), were added to the medium in the presence of the peptide 9-49 and the plate's were incubated at 37° C. under 5% CO2 atmosphere. Tubules formation was monitored observing the cells with an inverted microscope and, after recording the image by means of photography, a quantification was performed by evaluating the area occupied by the cells and by the capillaries network. Upon observation under the microscope, it is evident that the peptide of invention is able to inhibit the capacity of endothelial cells to form tubular structures similar to capillaries, which on the contrary are clearly evident in the untreated control cells (FIG. 4A). In FIG. 4B, a quantitative analysis of the effect, carried out by a proper software (NIH Image), is reported.
# [2] = tested on: EA.hy.926 cells; experiment: EA.hy.926 cell migration, chemotaxis test in Boyden chamber; format: cell-based, human; details: glioma conditioned medium as chemotactic stimulus, 4 hours, at/starting from 10^−9 M
# Description: Endothelial human cells EA.hy.926 were grown in DMEM supplemented with 10% fetal bovine serum (FBS) and with the appropriate concentrations of glutamine and antibiotics. Before the experiments, the cells had been deprived of serum for 24 hours in 0.1% FBS. EA.hy.926 cells migration has been evaluated by chemotaxis test in a 48 well Boyden chamber using polycarbonate filters of 12 μm porosity pre-treated with a 10 μg/ml type I collagen solution. […] The chemotactic stimulus, represented by a conditioned medium obtained by a culture of glioma cells, was added to the lower chamber. After 4 hours of incubation at 37° C., non migrated cells were removed by a scraper and the filter was colored with Diff Quick. Migrated cells were then counted at a 400×magnification in 6 different fields. The results, reported in FIG. 2, are expressed as a percentage of the maximal migration induced by the conditioned medium in the presence of the peptide or of endostatin.
# [3] = tested on: EA.hy.926 cells; experiment: DNA synthesis (tritiated thymidine incorporation) in EA.hy.926 cells stimulated with 10% FBS; format: cell-based, human; details: 24 hours, starting from the concentration of 10^−12 M
# Description: Endothelial human cells EA.hy.926 were grown in DMEM supplemented with 10% fetal bovine serum (FBS) and with the appropriate concentrations of glutamine and antibiotics. Before the experiments, the cells had been deprived of serum for 24 hours in 0.1% FBS. EA.hy.926 cells were inoculated in 96 well-plates and, after being deprived of serum for 24 hours, were 'stimulated with 10% FBS in the presence or in the absence of different concentrations of the peptide 6-49 or of endostatin for further 24 hours. Tritiated tymidine (1 μCi/well) was added during the last 6 hours of incubation. The cells were then extracted in 10% TCA and the radioactivity incorporated in the TCA-insoluble fraction was determined after solubilization in 0.5 M NaOH. The results, reported in FIGS. 3a and 3b, are expressed as the percentage of the maximal stimulation induced by 10% serum in the absence of the drug.
# [4] = tested on: male mice C57/b16; experiment: Matrigel pellet s.c. in mice, hemoglobin amount (Drabkin's method); format: in vivo; details: Matrigel with FGF 2 ng/ml and heparin 36 U/ml s.c., 4 days; dose of 1 mg/mouse; compared with controls
# Description: […] of Matrigel containing FGF 2 ng/ml and heparin 36 U/ml were inoculated s.c. in the abdominal region of male mice C57/b16, of age from 6 to 10 weeks. […] Six animals were used in each experiment. After 4 days, the gelatinized Matrigel pellet was recovered and the amount of hemoglobin therein was measured by means of a commercial kit based on Drabkin's method ([…] Aldrich).
substance,measurement,setting,value
"FQPVLHLVALNSPLSGGMRGIRGADFQC(Acm)FQQARAVGLAGTFRAF [Peptide 6-49, tetratetracontapeptide]","tubules formation compared with controls, considered as 100%",[1],23%
same,maximal inhibition of cell migration,[2],about 60%
same,maximal inhibition of DNA synthesis,[3],about 80%
same,hemoglobin levels in the Matrigel pellets,[4],capable of reducing hemoglobin levels
